Source: US7989438B2, “Therapeutic compounds” (Istituto di Ricerche di Biologia Molecolare P. Angeletti SpA, priority 2007, dated 2011)
Where two headings read alike, the source gives them in different places.

Test system: HCV subgenomic replication
Assay: Cell based HCV replication assay (subgenomic replicon in Huh-7 cells, NS3 Cell-ELISA)
Details: Table A, activity ranges, Huh-7 replicon cells, 96 hours, read-out: IC50 (nM), Inhibition of HCV subgenomic replication
Source text: Cell clones that stably maintain subgenomic HCV replicon were obtained by transfecting Huh-7 cells with an RNA replicon identical to I377neo/NS3-3′/wt described by Lohmann et al. (1999) (EMBL-genbank No. AJ242652), followed by selection with neomycin sulfate (G418). Viral replication was monitored by measuring the expression of the NS3 protein by an ELISA assay performed directly on cells grown in 96 wells microtiter plates (Cell-ELISA) using the anti-NS3 monoclonal antibody 10E5/24 (as described in published International application WO 02/59321). Cells were seeded into 96 well plates at a density of 10^4 cells per well in a final volume of 0.1 ml of DMEM/10% FCS. Two hours after plating, 50 μl of DMEM/10% FCS containing a 3× concentration of inhibitor were added, cells were incubated for 96 hours and then fixed for 10 minutes with ice-cold isopropanol. Each condition was tested in duplicate and average absorbance values were used for calculations. The cells were washed twice with PBS, blocked with 5% non-fat dry milk in PBS+0.1% Triton X100+0.02% SDS (PBSTS) and then incubated o/n at 4° C. with the 10E5/24 mab diluted in Milk/PBSTS. After washing 5 times with PBSTS, the cells were incubated for 3 hours at room temperature with Fc specific anti-mouse IgG conjugated to alkaline phosphatase (Sigma), diluted in Milk/PBSTS. After washing again as above, the reaction was developed with p-Nitrophenyl phosphate disodium substrate (Sigma) and the absorbance at 405/620 nm read at intervals. For calculations, we used data sets where samples incubated without inhibitors had absorbance values comprised between 1 and 1.5. The inhibitor concentration that reduced by 50% the expression of NS3 (IC50) was calculated by fitting the data to the Hill equation, Fraction inhibition=1−(Ai−b)/(A0−b)=[I]^n/([I]^n+[…]) where: • Ai=absorbance value of HBI10 cells supplemented with the indicated inhibitor concentration. • A0=absorbance value of HBI10 cells incubated without inhibitor. • b=absorbance value of Huh-7 cells plated at the same density in the same microtiter plates and incubated without inhibitor. • n=Hill coefficient.

**Q.** For `CN1CCN2CCCC2CO[C@@H]2COc3ccccc3-c3c(C4CCCCC4)c4ccc(cc4n3C2)C(=O)NS1(=O)=O` (stereo partly drawn) [Compound A17, (20S)-31-cyclohexyl-10-methyl-19,22-dioxa-9-thia-1,8,10,13-tetraazahexacyclo[18.9.1.1^2,6.1^3,29.0^13,17.0^23,28]dotriaconta-2(32),3,5,23,25,27,29(31)-heptaen-7-one 9,9-dioxide], which IC50 (Hepatitis C virus) is on record?
**A.** The IC50 was 25 to 150 nM.

**Q.** How did the IC50 (Hepatitis C virus) turn out when `CN1CCN2CCC(C2)N(C)S(=O)(=O)NC(=O)c2ccc3c(C4CCCCC4)c4n(c3c2)C[C@@H]1COc1ccccc1-4` [Compound A18, (18R)-29-cyclohexyl-10,17-dimethyl-20-oxa-9-thia-1,8,10,14,17-pentaazahexacyclo[16.9.1.1^2,6.1^3,27.1^11,14.0^21,26]hentriaconta-2(31),3,5,21,23,25,27(29)-heptaen-7-one 9,9-dioxide] was run?
**A.** Its IC50 is under 25 nM.

**Q.** For `CCN1CCN(C)[C@H]2COc3c(C)cccc3-c3c(C4CCCCC4)c4ccc(cc4n3C2)C(=O)NS(=O)(=O)N(C)CC1` [Compound A19, (7R)-14-cyclohexyl-21-ethyl-4,18,24-trimethyl-7,8-dihydro-6H-7,11-(epiminoethanoiminoethanoiminothioiminomethano)indolo[1,2-e][1,5]benzoxazocin-15-one 17,17-dioxide], which IC50 is on record?
**A.** The IC50 was under 25 nM.

**Q.** With `CN1CCOCCN(C)S(=O)(=O)NC(=O)c2ccc3c(C4CCCCC4)c4n(c3c2)C[C@@H]1COc1ccccc1-4` [Compound A20, (7R)-14-cyclohexyl-18,24-dimethyl-7,8-dihydro-6H-7,11-(epiminoethanooxyethanoiminothioiminomethano)indolo[1,2-e][1,5]benzoxazocin-15-one 17,17-dioxide] as the compound, how does the IC50 read?
**A.** The IC50 was 25 to 150 nM.

**Q.** How did the IC50 (Hepatitis C virus) turn out when `CN1[C@H]2CCN(CCN(C)S(=O)(=O)NC(=O)c3ccc4c(C5CCCCC5)c5n(c4c3)C[C@@H]1COc1ccccc1-5)C2` [Compound A21, (16S,18R)-29-cyclohexyl-10,17-dimethyl-20-oxa-9-thia-1,8,10,13,17-pentaazahexacyclo[16.9.1.1^2,6.1^3,27.1^13,16.0^21,26]hentriaconta-2(31),3,5,21,23,25,27(29)-heptaen-7-one 9,9-dioxide] was run?
**A.** Its IC50 is under 25 nM.

**Q.** For `CCCc1cccc2c1OC[C@H]1Cn3c-2c(C2CCCCC2)c2ccc(cc23)C(=O)NS(=O)(=O)N(C)CCN(CC)CCN1C` [Compound A22, (7R)-14-cyclohexyl-21-ethyl-18,24-dimethyl-4-propyl-7,8-dihydro-6H-7,11-(epiminoethanoiminoethanoiminothioiminomethano)indolo[1,2-e][1,5]benzoxazocin-15-one 17,17-dioxide], which IC50 is on record?
**A.** Its IC50 is 25 to 150 nM.

**Q.** For `O=C1NS(=O)(=O)N2CCN(CCN3CC4(COc5ccccc5-c5c(C6CCCCC6)c6ccc1cc6n5C4)C3)CC2` [Compound A23, 31-cyclohexyl-8-oxa-24-thia-1,4,16,23,25-pentaazaheptacyclo[23.2.2.1^4,6.1^6,16.1^15,18.1^17,21.0^9,14]tritriaconta-9,11,13,15(31),17(30),18,20-heptaen-22-one 24,24-dioxide], which IC50 (Hepatitis C virus) is on record?
**A.** The IC50 was 25 to 150 nM.

**Q.** With `CN1CCN(C)C2COc3ccccc3-c3c(C4CCCCC4)c4ccc(cc4n3C2)C(=O)NS(=O)(=O)N(C)C(C)(C)C1` [Compound A24, (7R)-14-cyclohexyl-18,19,19,21,24-pentamethyl-7,8-dihydro-6H-7,11-(epiminoethanoiminoethanoiminothioiminomethano)indolo[1,2-e][1,5]benzoxazocin-15-one 17,17-dioxide] as the compound, how does the IC50 read?
**A.** Its IC50 is 25 to 150 nM.

**Q.** With `CN1CCCC2COc3ccccc3-c3c(C4CCCCC4)c4ccc(cc4n3C2)C(=O)NS(=O)(=O)N(C)CC1` [Compound A25, (7R)-14-cyclohexyl-18,21-dimethyl-7,8-dihydro-6H-7,11-(propanoiminoethanoiminothioiminomethano)indolo[1,2-e][1,5]benzoxazocin-15-one 17,17-dioxide] as the compound, how does the IC50 read?
**A.** Its IC50 is under 25 nM.

**Q.** How did the IC50 turn out when `CCN1CCN(C)C2COc3c(CN4CCCCC4)cccc3-c3c(C4CCCCC4)c4ccc(cc4n3C2)C(=O)NS(=O)(=O)N(C)CC1` [Compound A26, (7R)-14-cyclohexyl-21-ethyl-18,24-dimethyl-4-(piperidin-1-ylmethyl)-7,8-dihydro-6H-7,11-(epiminoethanoiminoethanoiminothioiminomethano)indolo[1,2-e][1,5]benzoxazocin-15-one 17,17-dioxide] was run?
**A.** The IC50 was under 25 nM.

**Q.** How did the IC50 turn out when `COc1cccc2c1OCC1Cn3c-2c(C2CCCCC2)c2ccc(cc23)C(=O)NS(=O)(=O)N(C)CCNCCN1C` [Compound A27, (7R)-14-cyclohexyl-4-methoxy-18,24-dimethyl-7,8-dihydro-6H-7,11-(epiminoethanoiminoethanoiminothioiminomethano)indolo[1,2-e][1,5]benzoxazocin-15-one 17,17-dioxide] was run?
**A.** The IC50 was under 25 nM.

**Q.** With `CCN1CCN(C)C2COc3c(OC)cccc3-c3c(C4CCCCC4)c4ccc(cc4n3C2)C(=O)NS(=O)(=O)N(C)CC1` [Compound A28, (7R)-14-cyclohexyl-21-ethyl-4-methoxy-18,24-dimethyl-7,8-dihydro-6H-7,11-(epiminoethanoiminoethanoiminothioiminomethano)indolo[1,2-e][1,5]benzoxazocin-15-one 17,17-dioxide] as the compound, how does the IC50 read?
**A.** Its IC50 is under 25 nM.

**Q.** `COc1cccc2c1OCC1Cn3c-2c(C2CCCCC2)c2ccc(cc23)C(=O)NS(=O)(=O)N(C)CCN(Cc2cnn(C)c2)CCN1C` [Compound A29, (7R)-14-cyclohexyl-4-methoxy-18,24-dimethyl-21-[(1-methyl-1H-pyrazol-4-yl)methyl]-7,8-dihydro-6H-7,11-(epiminoethanoiminoethanoiminothioiminomethano)indolo[1,2-e][1,5]benzoxazocin-15-one 17,17-dioxide] was tested. Which IC50 did it give?
**A.** Its IC50 is under 25 nM.

**Q.** With `CNC(=O)CN1CCN(C)CCN(C)S(=O)(=O)NC(=O)c2ccc3c(C4CCCCC4)c4n(c3c2)CC1COc1ccccc1-4` [Compound A30, 2-[(7R)-14-cyclohexyl-18,21-dimethyl-17,17-dioxido-15-oxo-7,8-dihydro-6H-7,11-(epiminoethanoiminoethanoiminothioiminomethano)indolo[1,2-e][1,5]benzoxazocin-24-yl]-N-methylacetamide] as the compound, how does the IC50 read?
**A.** The IC50 was 25 to 150 nM.

**Q.** For `CN(C)CCN1CCC(C)(C)CCN(C)S(=O)(=O)NC(=O)c2ccc3c(C4CCCCC4)c4n(c3c2)CC1COc1ccccc1-4` [Compound A31, (7R)-14-cyclohexyl-24-[2-(dimethylamino)ethyl]-18,21,21-trimethyl-7,8-dihydro-6H-7,11-(epiminopentanoiminothioiminomethano)indolo[1,2-e][1,5]benzoxazocin-15-one 17,17-dioxide], which IC50 is on record?
**A.** The IC50 was under 25 nM.

**Q.** How did the IC50 turn out when `CN1CCN(C)C2COc3c(OCCN4CCCC4)cccc3-c3c(C4CCCCC4)c4ccc(cc4n3C2)C(=O)NS(=O)(=O)N(C)CC1` [Compound A32, (7R)-14-cyclohexyl-18,21,24-trimethyl-4-(2-pyrrolidin-1-ylethoxy)-7,8-dihydro-6H-7,11-(epiminoethanoiminoethanoiminothioiminomethano)indolo[1,2-e][1,5]benzoxazocin-15-one 17,17-dioxide] was run?
**A.** The IC50 was under 25 nM.

**Q.** How did the IC50 (Hepatitis C virus) turn out when `O=C1NS(=O)(=O)N2CCN(CCCC3COc4ccccc4-c4c(C5CCCCC5)c5ccc1cc5n4C3)CC2` (centres unmarked) [Compound A34, 30-cyclohexyl-18-oxa-2-thia-1,3,10,24-tetraazahexacyclo[22.2.2.1^5,9.1^8,11.1^10,20.0^12,17]hentriaconta-5(31),6,8,11(30),12,14,16-heptaen-4-one 2,2-dioxide] was run?
**A.** The IC50 was 25 to 150 nM.
